# Assay results published in patent US9849134B2, “Method of improving cognition and social behavior in humans having deficits therein due to neurodegenerative disorders and compounds and compositions therefor” (The Board of Trustees of the Leland Stanford Junior …, priority 2014, dated 2017).
# Entries after “also recorded” stand apart in the source; their conditions may differ. Counter-ions that a name gives are not always drawn. Like-named read-outs stand apart in the source and are kept apart here. * marks the point of attachment. Myristoyl = CCCCCCCCCCCCCC(=O)*
# Experiments:
# 5xFAD mice = test: Chronic dosing in 5xFAD mouse model of AD (memory, Morris-Water Maze, microglia, plaques); format: in vivo
# [1] = test system: Thy1-hAPP^Lond/Swe+ line transgenic mice; test: Fear conditioning test in Thy1-hAPP^Lond/Swe+ mice; format: in vivo; settings: 0.3 and 1 mg/kg s.c., chronic, after 2.5 months
# pCREB [2] = test: Western blot of pCREB in medial amygdala of APP mice and WT controls; format: in vivo
# Description: Molecular analyses. […] The quantitative analysis of stained cells was done in different brain regions according to the Mouse Brain Atlas. Cell counting was achieved using the unbiased-stereologic method. The total number of positive cells was quantified with the optical fractionator method using the StereoInvestigator software (MBF Bioscience, Williston, Vt., USA). The counting criteria were determined so as to obtain a mean coefficient of error ≦0.10. Analysis of pCREB was performed by western blot. […] It was reported that in Alzheimer's disease several phosphorylated proteins and transcription factors are preferentially located in the cytoplasm (vs. the nucleus) and are thus inefficient in inducing expression of genes important for learning and memory.
# wild type mice = test: Cardiac safety after chronic treatment in wild type mice; format: in vivo; settings: 3 months
# [3] = test system: Thy1-hAPP^Lond/Swe+ line transgenic mice; test: Activity chamber test (locomotor activity) in Thy1-hAPP^Lond/Swe+ mice; format: in vivo; settings: 0.3 and 1 mg/kg s.c., chronic, after 1 month
# [4] = test system: Thy1-hAPP^Lond/Swe+ mice (APP); test: Social recognition test in APP mouse model of AD; format: in vivo
# Description: (§1) Behavioral testing. […] Drug treatment. […] Betaxolol was injected sub-cutaneously (1 mg/kg) or in the MeA (30 nmole/side). PKI 14-22 amide was dissolved in 30% acetonitrile and injected in the MeA (2.75 nmole/side).
# β-arrestin pathway = β-arrestin pathway activation; format: cell-based
# mice and rats = settings: cited from earlier work
# pCREB [5] = test: Western blot of pCREB in C57B1/6 mice; format: in vivo
# Description: (§2) Molecular analyses. Immunohistochemistry was used to assess c-Fos, tyrosine hydroxylase (TH) and β1-ADR. The quantitative analysis of stained cells was done in different brain regions according to the Mouse Brain Atlas. Cell counting was achieved using the unbiased-stereologic method. The total number of positive cells was quantified with the optical fractionator method using the StereoInvestigator software (MBF Bioscience, Williston, Vt., USA). The counting criteria were determined so as to obtain a mean coefficient of error ≦0.10. Analysis of pCREB was performed by western blot.
# We then tested whether pharmacological modulation of β1-ADR affects CREB phosphorylation in the MeA in the context of social learning.
# Thy1-APP^Lond/Swe+ mice = test: Working memory in Thy1-APP^Lond/Swe+ mice; format: in vivo; settings: acute s.c. 3 mg/kg
# [6] = Xamoterol concentration in plasma and brain after s.c. injection; format: in vivo; settings: mice; for concentration at 30 min / concentration at 1 h / concentration at 2 h: C57Bl/6, mouse, sc, 3 mg/kg s.c.
# Description: Mice are euthanized at 3, 15, 30, 60, 120, 240 and 360 minutes after drug administration. Blood is drawn by cardiac puncture and collected in heparinized tubes. Plasma is immediately separated by centrifugation and stored at −80° C. until assay. For tissue distribution studies, tissue samples from the brain, heart, kidney, liver and spleen are collected 60 and 120 minutes after drug administration. The tissue samples are homogenized using 0.9% saline at a ratio of 1:2. The homogenates are stored at −80° C. until analysis. […] 2(2): p.
# [7] = test system: humans with heart failure; settings: 200 mg twice daily for 2-12 months; cited from earlier work
# C57B1/6 mice [8] = test: Social recognition tests (in-home cage social discrimination, 3-chamber) in C57B1/6 mice; format: in vivo
# Description: as §1
# c-Fos = test system: c-Fos
# Description: as §2
# Brain regions involved in social recognition have already been defined. Among them are the lateral septum, prefrontal cortex and MeA. […] We used c-Fos as a marker of neuronal activity and compared its expression in a group of C57B1/6 mice after social learning with a group of mice after both social learning and social recognition.
# C57BI/6 mice = settings: single dose 1 mg/kg
# β2-ADR KO mice = settings: 3 mg/kg
# Description: (§3) Behavioral testing. Social recognition was tested in two different tests: the 3-chamber social test developed by Nadler et al and the in-home cage social discrimination task developed by Macbeth et al. To differentiate between social recognition and recognition of non-social odors/objects non-social odor discrimination tests (olfactory habituation/dishabituation and olfactory recognition test) and an object recognition test were used.
# C57B1/6 mice [9] = test system: C57B1/6 mice
# Description: as §3
# We assessed the ability of C57B1/6 mice to recognize a previously-met conspecific after an acute subcutaneous injection of various doses of a selective β1-ADR antagonist, betaxolol (0.01, 0.1 and 1 mg/kg).
# [10] = 1 mg/kg, 20 minutes prior to learning phase
compound,measurement,setting,value
"O=C(NCCNCC(O)COc1ccc(O)cc1)N1CCOCC1 (racemic) [xamoterol, 1-p-Hydroxyphenoxy-3-beta-(morpholinocarbonamido)ethyl-amino-2-propanol hydrogen fumarate]",Activated microglia and Aβ plaque clearance,5xFAD mice,increased activated microglia and Aβ plaque clearance
same,"Performance in the Morris-Water Maze (escape latency, time in thigmotaxis)",5xFAD mice,improved
same,Declarative memory deficit,"5xFAD mice; daily oral 6 mg/kg over 3 months, 6 mg/kg",rescued; also recorded: rescues the declarative and spatial memory deficits
same,Cognitive functioning (fear conditioning test),[1],dose-dependent improvement in cognitive functioning
same,Total pCREB in MeA of APP mice after social learning,pCREB [2]; APP mice,no significant increase
same,pCREB in MeA of WT littermates after social learning,pCREB [2]; WT animals,induced an increase in pCREB
same,Nuclear pCREB level in medial amygdala of APP mice,"pCREB [2]; injection prior to social learning, nuclear fraction",significantly higher
same,"Cardiovascular functions (BP, heart rate, EF, FS, HW/BW)","wild type mice; 3 mg/kg s.c., vs vehicle",did not develop pathological changes in cardiac functions; also recorded: did not show significant difference in cardiovascular functions
same,Myocardial fibrosis,"wild type mice; 3 mg/kg s.c., vs vehicle",did not induce cardiac fibrosis; also recorded: did not show significant difference
same,Myocardial structure (Masson's trichrome staining),"wild type mice; 3 mg/kg, s.c.",did not produce changes in myocardial structure
same,Hyperactivity phenotype (locomotor activity),[3],dose-dependent reversal of hyperactivity phenotype
same,Social recognition deficit of APP mice,"[4]; 3 mg/kg systemic (s.c.), acute, prior to testing",rescued the social recognition deficit
same,Preference for unfamiliar intruder over empty cup,"[4]; 3 mg/kg, WT and APP mice",did not affect the preference
same,Effect on β-arrestin pathway,β-arrestin pathway,no effect on the β-arrestin pathway
same,Retrieval deficit in mice with NA deficiency,mice and rats; mice with NA deficiency,can be rescued
same,pCREB expression in mice brain,"pCREB [5]; 3 mg/kg s.c., after 15 minutes",significant increase of pCREB
same,pCREB expression in MeA vs baseline,"pCREB [5]; 3 mg/kg, 5 min after injection",increased
same,Working memory deficit,Thy1-APP^Lond/Swe+ mice,rescued; also recorded: rescues working memory and social recognition deficits
same,concentration at 30 min,"[6]; brain, read-out: Brain",168 ± 6.4 ng/mL
same,concentration at 1 h,"[6]; brain, read-out: Brain",116 ± 9.1 ng/mL
same,concentration at 2 h,"[6]; brain, read-out: Brain",125 ± 7.4 ng/mL
same,concentration at 30 min,"[6]; plasma, read-out: Plasma",274 ± 75.9 ng/mL
same,concentration at 1 h,"[6]; plasma, read-out: Plasma",45.1 ± 6.1 ng/mL
same,concentration at 2 h,"[6]; plasma, read-out: Plasma",4.7 ± 0.7 ng/mL
same,Passage of the BBB,[6],passes the BBB and reach the central nervous system
same,Side effects of chronic treatment in humans,[7],without any significant side effects
CC(C)NCC(O)COc1ccc(CCOCC2CC2)cc1 (stereo not drawn) [betaxolol],Social recognition after injection in the MeA,C57B1/6 mice [8]; 30 nmole in the MeA,impairs social recognition
same,Social recognition: preference for novel intruder over familiar one,C57B1/6 mice [8]; 0.01 mg/kg s.c.,showed this preference
same,Social recognition: preference for novel intruder over familiar one,C57B1/6 mice [8]; 0.1 mg/kg s.c.,did not show a preference
same,Social recognition: preference for novel intruder over familiar one,C57B1/6 mice [8]; 1 mg/kg s.c.,did not show a preference
same,"Long-term social memory, 24 hours after learning phase",C57B1/6 mice [8]; [10],impaired long-term social memory
same,"Short term social recognition, dosing before learning phase",C57B1/6 mice [8]; [10],impaired short term social recognition
same,"Social recognition, dosing before retrieval phase","C57B1/6 mice [8]; 1 mg/kg, 30 minutes prior to retrieval phase",did not impair social recognition
same,Social recognition in 3-chamber test,"C57B1/6 mice [8]; 1 mg/kg, systemic injection prior to learning phase",impairs social recognition
same,Social learning: preference for unfamiliar mouse over empty cup,C57B1/6 mice [8]; 0.01 to 1 mg/kg,did not affect social learning
same,Number of c-Fos positive cells in the MeA,c-Fos; 1 mg/kg prior to social recognition task,decreased the number of c-Fos positive cells in the MeA
same,Number of c-Fos positive cells in the thalamus (PV),c-Fos; injection prior to social recognition task,did not affect the number of c-Fos positive cells in the thalamus
same,Percent of β1-ADR cells expressing c-Fos in MeA,c-Fos; vs vehicle-injected mice,significantly reduced
same,Spatial navigation retrieval,mice and rats; wild-type mice and rats,produces spatial navigation retrieval deficit
same,Contextual memory,C57BI/6 mice,impairment of contextual memory
same,pCREB expression in MeA after 5 minutes of social interaction,"pCREB [5]; 1 mg/kg, 60 minutes before social learning",significantly decreased
same,Social recognition in β2-ADR KO mice,β2-ADR KO mice,effectively impaired social recognition abilities
same,Ability to recognize a familiar odor or object over a new one,C57B1/6 mice [9]; 1 mg/kg,not affected
same,"Non-social odor habituation, dishabituation and recognition",C57B1/6 mice [9]; 1 mg/kg,did not impair non-social odor recognition
same,Non-social odor recognition (heptanol / heptanol:octanol),C57B1/6 mice [9]; betaxolol vs vehicle,did not impair non-social order recognition
CC(C)NCC(O)c1ccc(O)c(O)c1 (stereo not drawn) [isoprenaline],Effect on β-arrestin pathway,β-arrestin pathway,activates both cAMP and β-arrestin pathways
"PKI 14-22 amide myristoylated (Myristoyl-SGRTGRRNA-NH2; SMILES CCCCCCCCCCCCCC(=O)N[C@@H](CO)C(=O)NCC(=O)N[C@@H](CCCNC(=N)N)C(=O)N[C@H](C(=O)NCC(=O)N[C@@H](CCCNC(=N)N)C(=O)N[C@@H](CCCNC(=N)N)C(=O)N[C@@H](CC(N)=O)C(=O)N[C@@H](C)C(N)=O)[C@@H](C)O; UniProt P61925 14-22, looked up, fragment) [PKA inhibitor]",Preference for unfamiliar conspecific over empty cup after injection in the MeA,C57B1/6 mice [8]; 2.75 nmole in the MeA,did not affect
same,Social recognition after injection in the MeA,C57B1/6 mice [8]; 2.75 nmole in the MeA,impaired the ability of mice to recognize between a new and familiar conspecific
